Where a name gives a salt, the structure may show the parent alone.
Each molecule was assayed against T1, human S1P1 (Homo sapiens, UniProt P21453) (assay: 35S-GTPγS binding assay using a membrane prepared from CHO cells which stably express S1P1 receptor). Conditions: CHO cell membrane fraction stably expressing human S1P1, read-out: EC50 (concentration of agonist required to give 50% of its own maximum increase ratio), human S1P1.
T1 construct: expressed in transfected cells
Type: biochemical
Protocol: ^35S-GTPγS Binding Assay Using a Membrane Prepared from CHO Cells Which Stably Express S1P1 Receptor
Functional activation of human S1P1 by the compounds was determined based on quantification of ^35S-GTPγS binding to G protein due to the receptor activation, by using a cell membrane fraction prepared from CHO cells in which human S1P1 are stably expressed. As for human S1P1, the above described human S1P1 was used. Membrane proteins as prepared and various concentrations of sphingosine-1-phosphate or the compounds diluted in a solvent such as DMSO were incubated in a solution comprising 20 mM Tris-Cl (pH 7.5), 100 mM NaCl, 10 mM MgCl2, […] (Upstate), 0.1% BSA (fatty acid free, Sigma) and 25 pM ^35S-GTPγS (specific activity 1250 Ci/mmol) in 96 well microtiter plates. Binding was performed by incubating them for 90 minutes at room temperature, and then terminated by harvesting the membrane proteins onto multiscreeen harvest FB plates (Millipore) using Millipore multiscreen separation system. After drying the harvest plates at least for 12 hours, 25 μl of MicroScint-O (Perkin Elmer) was added to each well and radioactivity was measured using a Top Counter.
Having the value measured for the well to which a solvent has been added as a control value, the agonist activity of the compounds was determined by comparing the increase in the well to which a test compound has been added to the control value, and therefore an increase ratio for each concentration of the compounds was obtained. EC50 values were culcurated as defined to be the concentration of agonist required to give 50% of its own maximum increase ratio.

T1 sequence (P21453 whole entry): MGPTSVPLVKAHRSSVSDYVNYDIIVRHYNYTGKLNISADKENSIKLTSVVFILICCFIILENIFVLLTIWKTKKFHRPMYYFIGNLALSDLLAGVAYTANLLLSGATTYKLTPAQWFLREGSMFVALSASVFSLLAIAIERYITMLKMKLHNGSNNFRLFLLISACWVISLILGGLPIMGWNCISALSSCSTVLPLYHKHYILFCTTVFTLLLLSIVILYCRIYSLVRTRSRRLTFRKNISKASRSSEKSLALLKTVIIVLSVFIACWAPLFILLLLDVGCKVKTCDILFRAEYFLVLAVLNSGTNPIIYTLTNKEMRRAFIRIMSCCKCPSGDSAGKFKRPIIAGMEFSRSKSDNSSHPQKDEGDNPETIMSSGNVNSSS

Row | Compound | EC50
1 | Cc1cc(-c2nc(-c3ccc4c(c3)CCC4N[C@H]3C[C@H](C(=O)O)C3)no2)ccc1-c1cc(C(F)(F)F)ccc1F (stereo partly shown) [Example 36] | < 10 nM
2 | Cc1cc(-c2nc(-c3cc(Cl)c4c(c3)CN([C@H]3C[C@H](C(=O)O)C3)C4)no2)ccc1-c1ccccc1 [Example 77] | < 10 nM
3 | Cc1cc(-c2nc(-c3ccc4c(c3)CN([C@H]3C[C@H](C(=O)O)C3)C4)no2)ccc1-c1cc(F)cc(F)c1F [Example 100] | < 10 nM
4 | Cc1cc(-c2nc(-c3ccc4c(c3)CCC4N[C@H]3C[C@H](C(=O)O)C3)no2)ccc1-c1cccc(Br)c1C(F)(F)F (stereo partly shown) [Example 51] | < 10 nM
5 | Cc1cc(-c2nc(-c3ccc4c(c3)CCC4N[C@H]3C[C@H](C(=O)O)C3)no2)ccc1-c1ccccc1Cl (stereo partly shown) [Example 58] | < 10 nM
6 | Cc1cc(-c2nc(-c3ccc4c(c3)CCC4N[C@H]3C[C@H](C(=O)O)C3)no2)ccc1-c1ccccc1F (stereo partly shown) [Example 20] | < 10 nM
7 | CSc1ccccc1-c1ccc(-c2nc(-c3ccc4c(c3)CN([C@H]3C[C@H](C(=O)O)C3)C4)no2)cc1C [Example 10] | < 10 nM
8 | Cc1cc(-c2nc(-c3ccc4c(c3)CCC4N[C@H]3C[C@H](C(=O)O)C3)no2)cc(C)c1-c1ccccc1 (stereo partly shown) [Example 2] | < 10 nM
9 | O=C(O)C1CC(NC2CCc3cc(-c4noc(-c5ccc(-c6ccccc6F)c(Cl)c5)n4)ccc32)C1 (stereo not drawn) [Example 55, 1,3-Trans-3-(5-(5-(2-chloro-2′-fluorobiphenyl-4-yl)-1,2,4-oxadiazol-3-yl)-2,3-dihydro-1H-inden-1-ylamino)cyclobutane carboxylic acid hydrochloric acid salt] | < 10 nM
10 | Cc1cc(-c2nc(-c3ccc4c(c3)CCC4N[C@H]3C[C@H](C(=O)O)C3)no2)c(F)cc1-c1ccoc1 (stereo partly shown) [Example 13] | < 10 nM
11 | Cc1cc(-c2nc(-c3ccc4c(c3)CCC4N[C@H]3C[C@H](C(=O)O)C3)no2)ccc1-c1cccc(C)c1F (stereo partly shown) [Example 37] | < 10 nM
12 | Cc1cc(-c2nc(-c3ccc4c(c3)CN([C@H]3C[C@H](C(=O)O)C3)C4)no2)ccc1-c1ccccc1C(F)(F)F [Example 85] | < 10 nM
13 | Cc1cc(-c2nc(-c3ccc4c(c3)CCC4N[C@H]3C[C@H](C(=O)O)C3)no2)c(F)cc1-c1cccc(F)c1C(F)(F)F (stereo partly shown) [Example 40] | < 10 nM
14 | Cc1cc(-c2nc(-c3ccc4c(c3)CCC4NC3CC(C(=O)O)C3)no2)ccc1-c1cccc([N+](=O)[O-])c1C(F)(F)F (stereo not shown) [Example 49] | < 10 nM
15 | Cc1cc(-c2nc(-c3cc(C)c4c(c3)CN([C@H]3C[C@H](C(=O)O)C3)C4)no2)ccc1-c1ccccc1C(F)(F)F [Example 54] | < 10 nM
16 | Cc1cc(-c2nc(-c3ccc4c(c3)CCC4N[C@H]3C[C@H](C(=O)O)C3)no2)c(F)cc1-c1ccccc1OC(F)(F)F (stereo partly shown) [Example 24] | < 10 nM
17 | Cc1cc(-c2nc(-c3ccc4c(c3)CCC4N[C@H]3C[C@H](C(=O)O)C3)no2)cc(C)c1-c1ccsc1 (stereo partly shown) [Example 16] | < 10 nM
18 | Cc1cc(-c2nc(-c3ccc4c(c3)CN([C@H]3C[C@H](C(=O)O)C3)C4)no2)c(F)cc1-c1cc(F)cc(F)c1F [Example 102] | < 10 nM
19 | Cc1cc(-c2nc(-c3ccc4c(c3)CCC4N[C@H]3C[C@H](C(=O)O)C3)no2)c(F)cc1-c1cccc(F)c1 (stereo partly shown) [Example 23] | < 10 nM
20 | Cc1cc(-c2nc(-c3ccc4c(c3)CCC4N[C@H]3C[C@H](C(=O)O)C3)no2)ccc1-c1cccc(C(F)(F)F)c1C(F)(F)F (stereo partly shown) [Example 47] | < 10 nM
21 | N#Cc1ccccc1-c1ccc(-c2nc(-c3ccc4c(c3)CCC4N[C@H]3C[C@H](C(=O)O)C3)no2)cc1Cl (stereo partly shown) [Example 63] | < 10 nM
22 | O=C(O)[C@H]1C[C@H](NC2CCc3cc(-c4noc(-c5ccc(-c6ccccc6)c(F)c5)n4)ccc32)C1 (stereo partly shown) [Example 60] | < 10 nM
23 | CSc1ccccc1-c1ccc(-c2nc(-c3ccc4c(c3)CCC4N[C@H]3C[C@H](C(=O)O)C3)no2)cc1C (mixture of isomers) [Example 6, 1,3-Trans-3-(5-(5-(2-methyl-2′-methylthiobiphenyl-4-yl)-1,2,4-oxadiazol-3-yl)-2,3-dihydro-1H-inden-1-ylamino)cyclobutane carboxylic acid hydrochloric acid salt] | < 10 nM
24 | Cc1cc(-c2nc(-c3ccc4c(c3)CN([C@H]3C[C@H](C(=O)O)C3)C4)no2)c(F)cc1-c1ccccc1F [Example 89] | < 10 nM

Continued, values first:

Row | EC50 | Compound
25 | < 10 nM | Cc1cc(-c2nc(-c3ccc4c(c3)CN([C@H]3C[C@H](C(=O)O)C3)C4)no2)ccc1-c1ccsc1 [Example 78]
26 | < 10 nM | Cc1cc(-c2nc(-c3ccc4c(c3)CN([C@H]3C[C@H](C(=O)O)C3)C4)no2)c(F)cc1-c1cccc(F)c1F [Example 93]
27 | < 10 nM | Cc1cc(-c2nc(-c3ccc4c(c3)CN([C@H]3C[C@H](C(=O)O)C3)C4)no2)ccc1-c1cccc(C(F)(F)F)c1F [Example 92]
28 | < 10 nM | Cc1cc(-c2nc(-c3ccc4c(c3)CN([C@H]3C[C@H](C(=O)O)C3)C4)no2)ccc1-c1ccccc1F [Example 84]
29 | < 10 nM | O=C(O)[C@H]1C[C@H](NC2CCc3cc(-c4noc(-c5ccc(-c6ccccc6)c(Cl)c5)n4)ccc32)C1 (stereo partly shown) [Example 62]
30 | < 10 nM | Cc1cc(-c2nc(-c3ccc4c(c3)CN([C@H]3C[C@@H](C(=O)O)C3)C4)no2)ccc1-c1ccccc1 [Example 104]
31 | < 10 nM | Cc1cc(-c2nc(-c3ccc4c(c3)CCC4N[C@H]3C[C@H](C(=O)O)C3)no2)ccc1-c1c(F)ccc(C)c1Cl (stereo partly shown) [Example 43]
32 | < 10 nM | Cc1cc(-c2nc(-c3ccc4c(c3)CCC4N[C@H]3C[C@H](C(=O)O)C3)no2)ccc1-c1cscc1C (stereo partly shown) [Example 25]
33 | < 10 nM | Cc1cc(-c2nc(-c3ccc4c(c3)CCC4N[C@H]3C[C@H](C(=O)O)C3)no2)c(F)cc1-c1ccccc1 (stereo partly shown) [Example 12]
34 | < 10 nM | Cc1cc(-c2nc(-c3ccc4c(c3)CCC4N[C@H]3C[C@H](C(=O)O)C3)no2)ccc1-c1cccc(Cl)c1C(F)(F)F (stereo partly shown) [Example 50]
35 | < 10 nM | O=C(O)[C@H]1C[C@H](NC2CCc3cc(-c4noc(-c5ccc(-c6ccccc6F)c(F)c5)n4)ccc32)C1 (stereo partly shown) [Example 61]
36 | < 10 nM | Cc1cscc1-c1c(C)cc(-c2nc(-c3ccc4c(c3)CCC4N[C@H]3C[C@H](C(=O)O)C3)no2)cc1C (stereo partly shown) [Example 22]
37 | < 10 nM | O=C(O)[C@H]1C[C@H](N2Cc3ccc(-c4noc(-c5ccc(-c6ccccc6F)c(Cl)c5)n4)cc3C2)C1 [Example 68]
38 | < 10 nM | Cc1cc(-c2nc(-c3ccc4c(c3)CN([C@H]3C[C@@H](C(=O)O)C3)C4)no2)c(F)cc1-c1cc(F)cc(F)c1F [Example 106]
39 | < 10 nM | Cc1cc(-c2nc(-c3ccc4c(c3)CCC4N[C@H]3C[C@H](C(=O)O)C3)no2)ccc1-c1c(Cl)ccc(C)c1F (stereo partly shown) [Example 44]
40 | < 10 nM | Cc1cc(-c2nc(-c3ccc4c(c3)CCC4N[C@H]3C[C@H](C(=O)O)C3)no2)ccc1-c1ccoc1 (stereo partly shown) [Example 14]

Row | EC50 | Compound
41 | < 10 nM | COc1cccc(-c2ccc(-c3nc(-c4ccc5c(c4)CCC5N[C@H]4C[C@H](C(=O)O)C4)no3)cc2C)c1F (stereo partly shown) [Example 38]
42 | < 10 nM | Cc1cc(-c2nc(-c3ccc4c(c3)CN([C@H]3C[C@H](C(=O)O)C3)C4)no2)ccc1-c1cccc(F)c1C(F)(F)F [Example 95]
43 | < 10 nM | Cc1cc(-c2nc(-c3ccc4c(c3)CCC4N[C@H]3C[C@H](C(=O)O)C3)no2)ccc1-c1cc(F)ccc1C#N (stereo partly shown) [Example 65]
44 | < 10 nM | Cc1cc(-c2nc(-c3ccc4c(c3)CCC4N[C@H]3C[C@H](C(=O)O)C3)no2)ccc1-c1cc(F)cc(F)c1F (stereo partly shown) [Example 46]
45 | < 10 nM | Cc1cc(-c2nc(-c3ccc4c(c3)CCC4N[C@H]3C[C@H](C(=O)O)C3)no2)ccc1-c1cc(Cl)ccc1F (stereo partly shown) [Example 35]
46 | < 10 nM | Cc1cc(-c2nc(-c3ccc4c(c3)CCC4N[C@H]3C[C@H](C(=O)O)C3)no2)ccc1-c1ccsc1 (stereo partly shown) [Example 3]
47 | < 10 nM | Cc1cc(-c2nc(-c3ccc4c(c3)CN([C@H]3C[C@H](C(=O)O)C3)C4)no2)ccc1-c1ccccc1Cl [Example 66]
48 | < 10 nM | Cc1cc(-c2nc(-c3ccc4c(c3)CN([C@H]3C[C@H](C(=O)O)C3)C4)no2)ccc1-c1cscc1C [Example 88]
49 | < 10 nM | Cc1cc(-c2nc(-c3ccc4c(c3)CCC4N[C@H]3C[C@H](C(=O)O)C3)no2)ccc1-c1cccc(F)c1C#N (stereo partly shown) [Example 64]
50 | < 10 nM | Cc1cc(-c2nc(-c3ccc4c(c3)CCC4N[C@H]3C[C@H](C(=O)O)C3)no2)ccc1-c1c(F)ccc(F)c1F (stereo partly shown) [Example 45]
51 | < 10 nM | Cc1cc(-c2nc(-c3ccc4c(c3)CCC4N[C@H]3C[C@H](C(=O)O)C3)no2)ccc1-c1cccc(F)c1F (stereo partly shown) [Example 28]
52 | < 10 nM | Cc1cc(-c2nc(-c3ccc4c(c3)CCC4N[C@H]3C[C@H](C(=O)O)C3)no2)ccc1-c1cccc(Cl)c1F (stereo partly shown) [Example 34]
53 | < 10 nM | Cc1cc(-c2nc(-c3ccc4c(c3)CCC4N[C@H]3C[C@H](C(=O)O)C3)no2)ccc1-c1cccc(I)c1C(F)(F)F (stereo partly shown) [Example 52]
54 | < 10 nM | Cc1cc(-c2nc(-c3ccc4c(c3)CCC4N[C@H]3C[C@H](C(=O)O)C3)no2)ccc1-c1c(F)cccc1F (stereo partly shown) [Example 42]
55 | < 10 nM | Cc1cc(-c2nc(-c3ccc4c(c3)CN([C@H]3C[C@H](C(=O)O)C3)C4)no2)ccc1-c1cccc(F)c1F [Example 90]
